Drawing on the supplement of paper PMC11368000, this text covers POD vs vehicle for 20 compounds.

A value given as a limit tells only on which side of the number the result lay.

The first assay concerns 1516 (donor line of iPSC-derived cardiomyocytes). Description: POD (EC05) for increase in Ca2+ transient decay-to-rise ratio (QT prolongation) vs vehicle; higher = less potent (higher point of departure). Particulars: exposure time: 90 min. An outline of the steps: (§1)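 Ca2+ flux in human iPSC-derived cardiomyocytes from 16 donors was recorded on a FLIPR Tetra for 100 s before and after a 90 min exposure at 37 °C to 0.1, 1, 10 and 100 µM (final, 0.5% DMSO). Donor-specific points of departure came from hierarchical Bayesian Hill fits to vehicle-normalised beat frequency, decay-to-rise ratio or peak frequency. A 5% change served as threshold, except for peak frequency, where it was a 95% loss.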
Turning to `O=C(O)C=CC(F)(C(F)(F)F)C(F)(F)F` [3-(Perfluoroisopropyl)-2-propenoic_acid], the POD vs vehicle was more than 100 µM.
As to `O=C(CC(=O)C(F)(F)C(F)(F)F)C(F)(F)F` [3H,3H-Perfluoro-2,4-hexanedione], the POD vs vehicle is more than 100 µM.
Consider `O=S(=O)(O)CCC(F)(F)C(F)(F)C(F)(F)C(F)(F)F` [4:2 Fluorotelomer sulfonic acid], for which the POD vs vehicle was more than 100 µM.
On to `NC(=O)C(F)(F)C(F)(F)C(F)(F)C(F)(F)F` [Nonafluoropentanamide], for which the POD vs vehicle is more than 100 µM.
Turning to `O=C(O)C(F)(F)OC(F)(F)C(F)(F)OC(F)(F)C(=O)O` [Perfluoro-3,6-dioxaoctane-1,8-dioic_acid], the POD vs vehicle is more than 100 µM.
As to `O=C(O)C(F)(F)C(F)(F)C(F)(F)OC(F)(C(F)(F)F)C(F)(F)F` [Perfluoro-4-isopropoxybutanoic_acid], the POD vs vehicle was more than 100 µM.
For `O=S(=O)(O)C(F)(F)C(F)(F)C(F)(F)C(F)(F)F` [Perfluorobutanesulfonic_acid], the POD vs vehicle amounted to 39.7 µM.
The same measure, in the same setting: then `O=S(=O)([O-])C(F)(F)C(F)(F)C(F)(F)C(F)(F)F.[K+]` [Potassium_perfluorobutanesulfonate], with more than 100 µM.

Another assay relates to 1518 (donor line of iPSC-derived cardiomyocytes). Described as above. The note with it: exposure time: 90 min. An outline of the steps: as §1
On to `NC(=O)C(F)(F)C(F)(F)C(F)(F)C(F)F`, for which the POD vs vehicle was 0.19 µM.
Still for that read-out and setting: then `OCC(O)CC(F)(F)C(F)(F)C(F)(F)C(F)(F)C(F)(F)C(F)(F)C(F)(F)C(F)(F)F` (configuration not stated) [1-(Perfluorofluorooctyl)propane-2,3-diol], with more than 100 µM; and `CC(O)C(F)(F)C(F)(F)F` (configuration not stated) [1-Pentafluoroethylethanol], with more than 100 µM; and `O=C(O)CCC(F)(F)C(F)(F)C(F)(F)C(F)(F)C(F)(F)F` [2H,2H,3H,3H-Perfluorooctanoic_acid], with more than 100 µM.
For the compound `O=C(O)C=C(C(F)(F)F)C(F)(F)F` [3,3-Bis(trifluoromethyl)-2-propenoic_acid], the POD vs vehicle is more than 100 µM.
Still for that read-out and setting: then `O=C(O)C=CC(F)(C(F)(F)F)C(F)(F)F` [3-(Perfluoroisopropyl)-2-propenoic_acid], with more than 100 µM; and `O=C(CC(=O)C(F)(F)C(F)(F)F)C(F)(F)F` [3H,3H-Perfluoro-2,4-hexanedione], with more than 100 µM; and `O=S(=O)(O)CCC(F)(F)C(F)(F)C(F)(F)C(F)(F)F` [4:2 Fluorotelomer sulfonic acid], with more than 100 µM.
`NC(=O)C(F)(F)C(F)(F)C(F)(F)C(F)(F)F` [Nonafluoropentanamide]: the POD vs vehicle came to 0.612 µM.
The same measure, in the same setting: in the case of `O=C(O)C(F)(F)OC(F)(F)C(F)(F)OC(F)(F)C(=O)O` [Perfluoro-3,6-dioxaoctane-1,8-dioic_acid] it was more than 100 µM; in that of `O=C(O)C(F)(F)C(F)(F)C(F)(F)OC(F)(C(F)(F)F)C(F)(F)F` [Perfluoro-4-isopropoxybutanoic_acid], more than 100 µM.
The same measure, in the same setting: then `O=S(=O)(O)C(F)(F)C(F)(F)C(F)(F)C(F)(F)F` [Perfluorobutanesulfonic_acid], with more than 100 µM.
Still for that read-out and setting: in the case of `O=S(=O)([O-])C(F)(F)C(F)(F)C(F)(F)C(F)(F)F.[K+]` [Potassium_perfluorobutanesulfonate] it was more than 100 µM.

Another assay concerns 1531 (donor line of iPSC-derived cardiomyocytes). The assay is described as above. The note with it: exposure time: 90 min. The method in brief:
as §1
`NC(=O)C(F)(F)C(F)(F)C(F)(F)C(F)F`: the POD vs vehicle stood at 2.04 µM.
On the same count and under the same terms, in the case of `OCC(O)CC(F)(F)C(F)(F)C(F)(F)C(F)(F)C(F)(F)C(F)(F)C(F)(F)C(F)(F)F` (configuration not stated) [1-(Perfluorofluorooctyl)propane-2,3-diol] it was more than 100 µM; in that of `CC(O)C(F)(F)C(F)(F)F` (configuration not stated) [1-Pentafluoroethylethanol], more than 100 µM.
In the case of `O=C(O)C(F)(F)C(F)(F)C(F)F` [2,2,3,3,4,4-Hexafluorobutanoic_acid], the POD vs vehicle was more than 100 µM.
The same measure, in the same setting: in the case of `NC(O)(C(F)(F)F)C(F)(F)F` [2-Aminohexafluoropropan-2-ol] it was more than 100 µM; in that of `O=C(O)CCC(F)(F)C(F)(F)C(F)(F)C(F)(F)C(F)(F)F` [2H,2H,3H,3H-Perfluorooctanoic_acid], 17 µM; in that of `O=C(O)C=C(C(F)(F)F)C(F)(F)F` [3,3-Bis(trifluoromethyl)-2-propenoic_acid], more than 100 µM.
Turning to `O=C(O)C=CC(F)(C(F)(F)F)C(F)(F)F` [3-(Perfluoroisopropyl)-2-propenoic_acid], the POD vs vehicle is more than 100 µM.
Same read-out and setting: in the case of `O=C(O)CCC(F)(F)C(F)(F)C(F)(F)F` [3:3 Fluorotelomer carboxylic acid] it was more than 100 µM; in that of `O=S(=O)(O)CCC(F)(F)C(F)(F)C(F)(F)C(F)(F)F` [4:2 Fluorotelomer sulfonic acid], more than 100 µM.
As for `OCC(F)(F)C(F)(F)C(F)(F)F` [Heptafluorobutanol], the POD vs vehicle is more than 100 µM.
Regarding `OCC(F)(F)C(F)(F)C(F)(F)CO` [Hexafluoroamylene_glycol], the POD vs vehicle was more than 100 µM.
On the same count and under the same terms, then `O=C(O)C(F)(F)OC(F)(F)C(F)(F)OC(F)(F)F` [Perfluoro-3,6-dioxaheptanoic_acid], with more than 100 µM; and `O=S(=O)(O)C(F)(F)C(F)(F)C(F)(F)C(F)(F)F` [Perfluorobutanesulfonic_acid], with more than 100 µM.
On the same count and under the same terms, in the case of `O=C(O)C(F)(F)C(F)(F)C(F)(F)C(F)(F)C(F)(F)C(F)(F)C(F)(F)C(F)(F)F` [Perfluorononanoic_acid] it was more than 100 µM.

Another assay relates to 30145 (donor line of iPSC-derived cardiomyocytes). The assay can be described thus: POD (EC05) for increase in beat frequency (positive chronotrope) vs vehicle; higher = less potent (higher point of departure). The note with it: exposure time: 90 min. The method in brief:
as §1
Compound `OCC(O)CC(F)(F)C(F)(F)C(F)(F)C(F)(F)C(F)(F)C(F)(F)C(F)(F)C(F)(F)F` (configuration not stated) [1-(Perfluorofluorooctyl)propane-2,3-diol] registered a POD vs vehicle of more than 100 µM.
As for `CC(O)C(F)(F)C(F)(F)F` (configuration not stated) [1-Pentafluoroethylethanol], the POD vs vehicle is more than 100 µM.
Still for that read-out and setting: in the case of `O=C(O)CCC(F)(F)C(F)(F)C(F)(F)C(F)(F)C(F)(F)F` [2H,2H,3H,3H-Perfluorooctanoic_acid] it was more than 100 µM; in that of `O=C(O)C=C(C(F)(F)F)C(F)(F)F` [3,3-Bis(trifluoromethyl)-2-propenoic_acid], more than 100 µM.
Still for that read-out and setting: in the case of `O=C(O)C=CC(F)(C(F)(F)F)C(F)(F)F` [3-(Perfluoroisopropyl)-2-propenoic_acid] it was more than 100 µM; in that of `O=C(O)CCC(F)(F)C(F)(F)C(F)(F)F` [3:3 Fluorotelomer carboxylic acid], more than 100 µM; in that of `O=C(CC(=O)C(F)(F)C(F)(F)F)C(F)(F)F` [3H,3H-Perfluoro-2,4-hexanedione], more than 100 µM.
On the same count and under the same terms, then `NC(=O)C(F)(F)C(F)(F)C(F)(F)C(F)(F)F` [Nonafluoropentanamide], with more than 100 µM.
`O=C(O)C(F)(F)OC(F)(F)C(F)(F)OC(F)(F)C(=O)O` [Perfluoro-3,6-dioxaoctane-1,8-dioic_acid] yielded a POD vs vehicle of more than 100 µM.
`O=C(O)C(F)(F)C(F)(F)C(F)(F)OC(F)(C(F)(F)F)C(F)(F)F` [Perfluoro-4-isopropoxybutanoic_acid] returned a POD vs vehicle of more than 100 µM.
Still for that read-out and setting: in the case of `O=S(=O)([O-])C(F)(F)C(F)(F)C(F)(F)C(F)(F)F.[K+]` [Potassium_perfluorobutanesulfonate] it was more than 100 µM.
